Conditions: rat, in vivo, iv, 10 mg/kg
Description: Blood samples (0.5 mL) were collected from rat orbit at the time points of 0.083, 0.25, 0.5, 1, 2, 4, 6 and 8 h. The blood samples were centrifuged for 10 min at 5,000 rpm in a desktop centrifuge (Anke TGL-16G, Shanghai, China), and the plasma was separated and transferred to microcentrifuge tubes. The PTX in plasma was measured using an HPLC system after extraction with ethylether and redissolved in methanol. The pharmacokinetic parameters of PTX were calculated using a non-compartmental model with Kinetica 5.0 (Thermo Fisher Scientific Inc., MA, USA).
Two hundred microliter of plasma samples were mixed with 10 µL of internal standard (100 ng/mL diazepam in methanol), followed by vortexing for 60 s. Following mixing into 800 µL of ethylether, the sample was vortexed for 2 min and centrifuged at 12,700 g for 10 min. Subsequently, the supernatant was collected and dried under a stream of nitrogen. The residual was redisolved in 100 µL of mobile phase, votexed for 3 min and centrifuged at 10,625 g for 5 min^7. Finally, 20 µL of the supernatant was injected into the HPLC system for analysis under the conditions described below.
PTX measurement was performed on a LC-10AT HPLC system (Shimadzu, Japan). It was separated at 30 °C using an ODS-C18 column (4.6 mm × 250 mm, Diamonsil, China). The samples were eluted with acetonitrile and water (54: 46, v/v) at the flow rate of 1.0 mL/min and monitored at 227 nm^8.

- AUC0-∞: 4380 ± 3570 ng·h/mL
- CL: 1.68 ± 1.19 L/h
- MRT: 1.78 ± 0.88 h
- k (elimination rate constant): 2.99 ± 2.88 h⁻¹
Substance: Taxol^®

— publication PMC4899770, “Core-shell nanocarriers with high paclitaxel loading for passive and active targeting” (Scientific Reports, 2016)
